Some test systems named below: MCF7 breast; SNB-78 CNS; RXF-631 renal; KM20L2 colon; DMS 273 small cell lung; XF 498 CNS; DLD-1 colon; MDA-N; DMS 114 small cell lung.
Holding throughout (test): growth of human tumour cells (NCI), 48 h

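Method: 48-hour compound exposure of cells in 96-well plates, five concentrations, linear interpolation of endpoints. GI50 is the concentration that inhibits growth by half. TGI is the concentration that stops growth completely.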

Consider `CO/N=C(/C)c1cccc(Nc2cc(-n3nnc4ccccc43)nc3ccccc23)c1`, for which, in the assay with MCF7 breast, the GI50 was 31.3 µM and the TGI was greater than 100 µM.

Take `COc1ccc(OC)c2c1[nH]c(=O)c1c3ccccc3cn21`: in the assay on MCF7 breast, the GI50 was 0.0727 µM and the TGI came to 1.98 µM.

Consider `CN1CC(=O)N2Cc3ccccc3-n3cccc3C2C1` (configuration not stated), for which the TGI in the assay on SNB-78 CNS, in the assay with RXF-631 renal, with KM20L2 colon, with DMS 273 small cell lung, with XF 498 CNS and with DLD-1 colon was greater than 100 µM in each case.

For `CN1CCN(C2CCN(C(=O)Nc3cc(Oc4ccc(NC(=O)C5(C(=O)Nc6ccc(F)cc6)CC5)c(F)c4)ccn3)CC2)CC1`, in the assay with MCF7 breast, the GI50 was 1.09 µM and the TGI is greater than 10 µM.

`Oc1ccc(Nc2ncnc3c2sc2ncccc23)cc1`: in the assay on MCF7 breast, the GI50 is less than 0.01 µM and the TGI is greater than 100 µM.

Consider `C(=NCCN1CCOCC1)=NC1CCCCC1`, for which the TGI in the assay with MDA-N and in the assay with MCF7 breast was greater than 100 µM each time.

Consider `CC(=O)Nc1ccc(S(=O)(=O)N2C(=O)CCC2C(=O)Nc2ccc(Br)cc2)cc1` (configuration not stated), for which, in the assay with MCF7 breast, the GI50 is 1.48 µM and the TGI came out at 11 µM.

For the compound `O=c1/c(=C/c2ccccc2[N+](=O)[O-])sc2nnc(-c3ccco3)n12`, the TGI was 72.3 µM in the assay with SNB-78 CNS; greater than 100 µM in the assay on KM20L2 colon; greater than 100 µM in the assay on DMS 273 small cell lung; 40.4 µM in the assay with DMS 114 small cell lung; 34.5 µM in the assay on XF 498 CNS; 97.1 µM in the assay with DLD-1 colon.

Consider `c1ccc(-c2nnc(-c3ccccn3)s2)nc1`, for which, in the assay with MCF7 breast, the GI50 was 0.788 µM and the TGI was greater than 100 µM.

With `CNCc1ccccc1-c1csc([C@@H](C)Nc2nc(C)nc3cc(OC)c(OC)cc23)c1`, in the assay with MCF7 breast, the GI50 was 1.44 µM and the TGI was 3.19 µM.

In the assay with MCF7 breast, `C=C1C(=O)OC2CC(C)C(C(CC(C)=O)OC(C)=O)=CCC12` (configuration not stated) gave a TGI of 18.2 µM.

As for `CCOC(=O)C1=CN(C)C=C(C(=O)OCC)C1c1cc(Br)c(OCC)c(OC)c1`, in the assay with MCF7 breast, the GI50 is 32 µM and the TGI is greater than 100 µM.

As for `CC1(C)S[C@@H]2[C@H](NC(=O)C3(N)CCCCC3)C(=O)N2[C@H]1C(=O)O`, the TGI with MDA-N and in the assay with MCF7 breast was greater than 100 µM throughout.

For `CC[As](CC)SC[C@H](C)C(=O)N1CCC[C@H]1C(=O)O`, in the assay with MCF7 breast, the GI50 is 0.0363 µM and the TGI was found to be 0.159 µM.

As for `Cc1cn2c(=O)c3ncn(C4OC(CO)C(O)C4O)c3n(C)c2n1` (configuration not stated), the TGI in the assay with SNB-78 CNS, with RXF-631 renal, in the assay with KM20L2 colon, in the assay with DMS 273 small cell lung, with DMS 114 small cell lung and in the assay with DLD-1 colon was greater than 100 µM in each case.

As for `O=C(O)COc1ccc2c(=O)c3sc4c(=O)c5ccccc5c(=O)c4c3c(=O)c2c1`, in the assay with MCF7 breast, the GI50 is 5.51 µM and the TGI is 25.8 µM.

On to `COc1cc(C(=O)N2CCN(C=O)C2=S)cc(OC)c1OC`, for which, in the assay with MDA-N, the GI50 is 17.9 µM and the TGI is 34.5 µM. Besides, in the assay on MCF7 breast, the GI50 was 5.49 µM and the TGI came out at 24.6 µM.

Regarding `CCN1CCN(C(=O)[C@@]2(C)CC[C@]3(C)CC[C@]4(C)C(=CC(=O)[C@@H]5[C@@]6(C)CC[C@H](OC7C[C@@H](O)[C@@H](O)C(C)O7)C(C)(C)[C@@H]6CC[C@]54C)[C@@H]3C2)CC1` (some centres not stated), in the assay on MCF7 breast, the GI50 was 1.79 µM and the TGI came to 7.54 µM.

As for `Nc1nn2cc(F)cnc2c1C(=O)Nc1cncc(F)c1N1CCC(C(=O)N2CCN(C3COC3)CC2)CC1`, in the assay on MCF7 breast, the GI50 was 0.0608 µM and the TGI is greater than 100 µM.

On to `O=C(/C=C/c1ccccc1)CCC1C(=O)c2ccccc2C1=O`, for which the TGI in the assay with MDA-N and in the assay with MCF7 breast was greater than 100 µM throughout.

For the compound `COc1ccc(/C=C\[N+](=O)[O-])cc1OC`, in the assay with MCF7 breast, the GI50 was 3.05 µM and the TGI came out at 15.9 µM.

Consider `O=C(O)c1nnsc1-c1ccc(-c2snnc2C(=O)O)cc1`, for which the TGI with MDA-N and in the assay on MCF7 breast was greater than 100 µM in each case.

On to `CCCCC#CC1=C(Br)C(=O)OC1`, for which, in the assay with MCF7 breast, the GI50 was 1.03 µM and the TGI was 8.08 µM.

On to `CCC12CCCN(Cc3ccccc3)C1c1c(n(C)c3ccccc13)CC2` (configuration not stated), for which the TGI in the assay on KM20L2 colon, in the assay with DMS 273 small cell lung and in the assay on DLD-1 colon was greater than 253 µM in each case.

Take `NC(=O)/C=C/C(=O)c1c(Cl)cccc1Cl`: in the assay with MCF7 breast, the GI50 is 0.444 µM and the TGI amounted to 1.79 µM.

Take `Nc1nc(Cl)cc(NCCCCCCCCNc2cc(Cl)nc(N)n2)n1`: the TGI is greater than 100 µM in the assay with SNB-78 CNS; greater than 100 µM with KM20L2 colon; greater than 100 µM with DMS 273 small cell lung; 13.7 µM in the assay on XF 498 CNS; greater than 100 µM with DLD-1 colon.

For `Cc1cc(Cl)cc(OCCn2cc(F)cn2)c1-c1nc(N)nc2c1CN(C(=O)NCC(C)(F)F)C2`, in the assay with MCF7 breast, the GI50 was 0.0339 µM and the TGI was greater than 100 µM.

With `Cc1c2n(c(=O)[nH]c1=O)C1OC(CO)C(O2)C1O` (configuration not stated), the TGI with SNB-78 CNS, with KM20L2 colon, in the assay on DMS 273 small cell lung, in the assay with DMS 114 small cell lung and in the assay with DLD-1 colon was greater than 100 µM each time.

With `O=C(Nc1ccc(Nc2ccncc2)cc1)c1ccc([N+](=O)[O-])cc1`, in the assay on MCF7 breast, the GI50 is 3.5 µM and the TGI came to 20.5 µM.

As for `Cc1ccc(S(=O)(=O)Nc2ccccc2C=O)cc1`, the TGI in the assay on MDA-N amounted to 42.9 µM; in the assay on MCF7 breast, 35.2 µM.

`CCN(CC)CCC(CNc1ccnc2cc(Cl)ccc12)c1ccc(Cl)cc1` (configuration not stated): in the assay with MCF7 breast, the GI50 is 1.06 µM and the TGI amounted to 2.32 µM.

Turning to `O=C1CCC(Cl)=CC2CCCN12` (configuration not stated), the TGI in the assay on SNB-78 CNS, with KM20L2 colon, in the assay with DMS 114 small cell lung and with DLD-1 colon was greater than 100 µM throughout.

In the case of `COc1cc(-c2oc(=O)ccc2C#Cc2ccccn2)cc(OC)c1OC`, in the assay with MCF7 breast, the GI50 was 0.798 µM and the TGI was greater than 100 µM.

For the compound `NC(=S)N/N=C/C(=O)O`, in the assay on MCF7 breast, the GI50 was 5.58 µM and the TGI was greater than 100 µM.

For the compound `O=C(Nc1ccc(Br)cc1F)c1cc(F)ccc1O`, in the assay with MCF7 breast, the GI50 is 1.29 µM and the TGI turned out to be 7.14 µM.

In the case of `CC(=O)CCn1ncc(Cl)c(Cl)c1=O`, the TGI is 43 µM with SNB-78 CNS; 36.2 µM in the assay on KM20L2 colon; 32 µM in the assay on DMS 273 small cell lung; 35.5 µM with XF 498 CNS; 29.9 µM in the assay with DLD-1 colon.
